Structures are written as SMILES.

The first assay concerns the target T1, rat NaPi-2b (Rattus norvegicus, UniProt Q9JJ09).
T1 construct: expressed in transfected cells; host or cells: Xenopus oocytes injected with cRNA
T1 sequence (Q9JJ09 1-695): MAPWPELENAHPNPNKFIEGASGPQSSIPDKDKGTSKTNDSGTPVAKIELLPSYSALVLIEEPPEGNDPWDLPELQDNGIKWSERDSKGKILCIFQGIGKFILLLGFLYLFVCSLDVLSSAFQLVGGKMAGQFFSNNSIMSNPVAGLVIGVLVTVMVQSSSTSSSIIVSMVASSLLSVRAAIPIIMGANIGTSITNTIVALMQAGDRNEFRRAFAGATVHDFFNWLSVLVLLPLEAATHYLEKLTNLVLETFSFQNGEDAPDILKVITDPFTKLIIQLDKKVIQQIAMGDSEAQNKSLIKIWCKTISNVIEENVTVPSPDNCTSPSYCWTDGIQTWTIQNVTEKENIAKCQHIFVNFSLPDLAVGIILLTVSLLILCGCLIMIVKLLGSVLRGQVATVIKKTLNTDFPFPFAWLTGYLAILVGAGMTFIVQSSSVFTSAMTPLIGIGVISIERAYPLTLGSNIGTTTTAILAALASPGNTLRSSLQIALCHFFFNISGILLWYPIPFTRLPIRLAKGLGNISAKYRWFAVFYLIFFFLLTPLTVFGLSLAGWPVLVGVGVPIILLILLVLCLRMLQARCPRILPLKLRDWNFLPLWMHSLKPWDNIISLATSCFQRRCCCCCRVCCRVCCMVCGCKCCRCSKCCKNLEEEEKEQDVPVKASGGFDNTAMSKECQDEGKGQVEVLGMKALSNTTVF
Kind of assay: Sodium-dependent phosphate uptake of Xenopus oocytes which expressed NaPi-2b (32P). The conditions noted are these: Xenopus oocytes expressing rat NaPi-2b, 32P radioactive phosphorus; read-out: IC50 (phosphate uptake inhibitory activity). It counts as cell-based. The gist of the method: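 Rat small-intestine NaPi-2b cRNA injected into Xenopus oocytes, expressed for 2 days. Sodium-dependent phosphate uptake measured with 32P; % inhibition at 300 and 100 μM taken from the same inhibition curve.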
On to `Cc1ccc(/C=N/NC(=O)c2c(NC(=O)c3cccc(CN(CC(C)O)CC(C)O)c3)sc(C)c2C)cc1C` (stereo not drawn) [Compound 844, 3-{[Bis-(2-hydroxy-propyl)-amino]-methyl}-N-[3-(3,4-dimethyl-benzylidene-hydrazinocarbonyl)-4,5-dimethyl-thiophen-2-yl]-benzamide], for which the IC50 was less than 3 µM.

Take `CCN(CC)CCNCc1cccc(C(=O)Nc2sc3c(c2C(=O)N/N=C/c2ccc(OC)cc2)CCC3)c1` [Compound 815, 3-[(2-Diethylamino-ethylamino)-methyl]-N-[3-(4-methoxy-benzylidene-hydrazinocarbonyl)-5,6-dihydro-4H-cyclopenta[b]thiophen-2-yl]-benzamide]: the half-maximal inhibitory concentration (IC50) came to 16.7 µM.

For `CCN(CC)CCN(C)Cc1cccc(C(=O)Nc2ccc(I)cc2C(=O)N/N=C/c2cccc(O)c2)c1` [Compound 480, 3-{[(2-Diethylamino-ethyl)-methyl-amino]-methyl}-N-[2-(3-hydroxy-benzylidene-hydrazinocarbonyl)-4-iodo-phenyl]-benzamide], the half-inhibitory concentration (IC50) is less than 3 µM.

With `CCN(CC)CCN(C)Cc1cccc(C(=O)Nc2ccc(N3CCOCC3)cc2C(=O)N/N=C/c2ccc(OC)cc2)c1` [Compound 1076, 3-{[(2-Diethylamino-ethyl)-methyl-amino]-methyl}-N-[2-(4-methoxy-benzylidene-hydrazinocarbonyl)-4-morpholin-4-yl-phenyl]-benzamide], the IC50 stood at 2.57 µM.

On to `COc1ccc(/C=N/NC(=O)c2cc(N3CCOCC3)ccc2NC(=O)c2cccc(CSCCO)c2)cc1` [Compound 1066, 3-(2-Hydroxy-ethylsulfanylmethyl)-N-[2-(4-methoxy-benzylidene-hydrazinocarbonyl)-4-morpholin-4-yl-phenyl]-benzamide], for which the IC50 came to 2.69 µM.

Regarding `COc1ccc(C(=O)Nc2ccccc2C(=O)N/N=C/c2cc(C(F)(F)F)cc(C(F)(F)F)c2)cc1OC` [Compound 8, N-[2-(3,5-Bis-trifluoromethyl-benzylidene-hydrazinocarbonyl)-phenyl]-3,4-dimethoxy-benzamide], the half-inhibitory concentration (IC50) stood at 1.72 µM.

`Cc1ccc(/C=N/NC(=O)c2ccccc2NC(=O)c2ccc(F)cc2)cc1` [Compound 79, 4-Fluoro-N-[2-(4-methyl-benzylidene-hydrazinocarbonyl)-phenyl]-benzamide]: the IC50 was 2.87 µM.

With `CCN(CC)CCN(C)Cc1cccc(C(=O)Nc2ccc(OC)cc2C(=O)N/N=C/c2ccc(OC)cc2)c1` [Compound 1024, 3-{[(2-Diethylamino-ethyl)-methyl-amino]-methyl}-N-[4-methoxy-2-(4-methoxy-benzylidene-hydrazinocarbonyl)-phenyl]-benzamide], the IC50 was 3.94 µM.

As for `Cc1cccc(/C=N/NC(=O)c2cc(Br)ccc2NC(=O)c2cccnc2)c1` [Compound 174, N-[4-Bromo-2-(3-methyl-benzylidene-hydrazinocarbonyl)-phenyl]-nicotinamide], the IC50 stood at 12.5 µM.

For the molecule `CCSCCNCc1ccc(C(=O)Nc2ccc(Br)cc2C(=O)N/N=C/c2ccc(C)cc2)cc1` [Compound 765, N-[4-Bromo-2-(4-methyl-benzylidene-hydrazinocarbonyl)-phenyl]-4-[(2-ethylsulfanyl-ethylamino)-methyl]-benzamide], the IC50 came to 6.88 µM.

Turning to `O=C(Nc1ccc(Br)cc1C(=O)N/N=C/c1ccc(F)cc1)c1ccc(CN2CCC(N3CCCCC3)CC2)cc1` [Compound 311, 4-[1,4′]Bipiperidinyl-1′-ylmethyl-N-[4-bromo-2-(4-fluoro-benzylidene-hydrazinocarbonyl)-phenyl]-benzamide], the IC50 is 7.78 µM.

Regarding `Cc1ccc(/C=N/NC(=O)c2c(NC(=O)c3cccc(CN4CCC(N5CCCCC5)CC4)c3)sc3c2CCCC3)cc1C` [Compound 615, 3-[1,4′]Bipiperidinyl-1′-ylmethyl-N-[3-(3,4-dimethyl-benzylidene-hydrazinocarbonyl)-4,5,6,7-tetrahydro-benzo[b]thiophen-2-yl]-benzamide], the IC50 was 2.08 µM.

Regarding `CCN(CCO)Cc1ccc(C(=O)Nc2ccc(Cl)cc2C(=O)N/N=C/c2ccc(O)cc2)cc1` [Compound 441, N-[4-Chloro-2-(4-hydroxy-benzylidene-hydrazinocarbonyl)-phenyl]-4-{[ethyl-(2-hydroxy-ethyl)-amino]-methyl}-benzamide], the IC50 came to 40.1 µM.

For the molecule `O=C(Nc1ccc(Br)cc1C(=O)N/N=C/c1ccc(Cl)c(C(F)(F)F)c1)c1ccc(CSCCCO)cc1` [Compound 278, N-[4-Bromo-2-(4-chloro-3-trifluoromethyl-benzylidene-hydrazinocarbonyl)-phenyl]-4-(3-hydroxy-propylsulfanylmethyl)-benzamide], the concentration for half-maximal inhibition (IC50) is 0.16 µM.

Turning to `CCN(CCO)Cc1cccc(C(=O)Nc2ccc(Cl)cc2C(=O)N/N=C/c2cccc(OC)c2)c1` [Compound 428, N-[4-Chloro-2-(3-methoxy-benzylidene-hydrazinocarbonyl)-phenyl]-3-{[ethyl-(2-hydroxy-ethyl)-amino]-methyl}-benzamide], the 50% inhibitory concentration (IC50) was 1.82 µM.

For the molecule `Cc1ccc(/C=N/NC(=O)c2cc(N3CCCC3=O)ccc2NC(=O)c2cccc(CN(CC(C)O)CC(C)O)c2)cc1C` (stereo not drawn) [Compound 944, 3-{[Bis-(2-hydroxy-propyl)-amino]-methyl}-N-[2-(3,4-dimethyl-benzylidene-hydrazinocarbonyl)-4-(2-oxo-pyrrolidin-1-yl)-phenyl]-benzamide], the IC50 amounted to 12 µM.

As for `COc1cc(/C=N/NC(=O)c2ccccc2NC(=O)c2ccc(OC)c(OC)c2)ccc1O` [Compound 11, N-[2-(4-Hydroxy-3-methoxy-benzylidene-hydrazinocarbonyl)-phenyl]-3,4-dimethoxy-benzamide], the 50% inhibitory concentration (IC50) stood at 8.21 µM.

Turning to `CCN(CCO)Cc1cccc(C(=O)Nc2ccc(Cl)cc2C(=O)N/N=C/c2cccc(O)c2)c1` [Compound 430, N-[4-Chloro-2-(3-hydroxy-benzylidene-hydrazinocarbonyl)-phenyl]-3-{[ethyl-(2-hydroxy-ethyl)-amino]-methyl}-benzamide], the IC50 came out at 4.53 µM.

Consider `COc1ccc(/C=N/NC(=O)c2cc(N3CCCCC3)ccc2NC(=O)c2cccc(CN3CCc4nc5ncccc5cc4C3)c2)cc1` [Compound 898, 3-(7,8-Dihydro-5H-1,6,9-triaza-anthracen-6-ylmethyl)-N-[2-(4-methoxy-benzylidene-hydrazinocarbonyl)-4-piperidin-1-yl-phenyl]-benzamide], for which the IC50 was less than 0.3 µM.

The assay is the same for the next values; noted with them: phosphate uptake, oocytes expressing rat NaPi-2b; 300 μM, determined from inhibition curve.
`Cc1ccc(/C=N/NC(=O)c2cc(Br)ccc2NC(=O)c2ccc(CN3CCN(c4ccccn4)CC3)cc2)cc1C` [Compound 772, N-[4-Bromo-2-(3,4-dimethyl-benzylidene-hydrazinocarbonyl)-phenyl]-4-(4-pyridin-2-yl-piperazin-1-ylmethyl)-benzamide] registered an inhibition at 300 µM of 67.7%.

`COc1ccc(/C=N/NC(=O)c2cccnc2NC(=O)c2cccc(CN(CC(C)O)CC(C)O)c2)cc1` (stereo not drawn) [Compound 968, 3-{[Bis-(2-hydroxy-propyl)-amino]-methyl}-N-[3-(4-methoxy-benzylidene-hydrazinocarbonyl)-pyridin-2-yl]-benzamide] showed an inhibition at 300 µM of 52.7%.

`Cc1ccc(/C=N/NC(=O)c2scc(C)c2NC(=O)c2cccc(CSCCCO)c2)cc1C` [Compound 525, N-[2-(3,4-Dimethyl-benzylidene-hydrazinocarbonyl)-4-methyl-thiophen-3-yl]-3-(3-hydroxy-propylsulfanylmethyl)-benzamide] returned an inhibition at 300 µM of 38.9%.

With `COc1ccc(/C=N/NC(=O)c2cc(Br)ccc2NC(=O)c2ccc(CNC(CN3CCOCC3)c3ccccc3)cc2)cc1` (stereo not drawn) [Compound 748, N-[4-Bromo-2-(4-methoxy-benzylidene-hydrazinocarbonyl)-phenyl]-4-[(2-morpholin-4-yl-1-phenyl-ethylamino)-methyl]-benzamide], the inhibition at 300 µM was found to be 56.5%.

In the case of `CC(O)CN(Cc1cccc(C(=O)Nc2sccc2C(=O)N/N=C/c2ccc(Cl)c(C(F)(F)F)c2)c1)CC(C)O` (stereo not drawn) [Compound 779, 3-{[Bis-(2-hydroxy-propyl)-amino]-methyl}-N-[3-(4-chloro-3-trifluoromethyl-benzylidene-hydrazinocarbonyl)-thiophen-2-yl]-benzamide], the inhibition at 300 µM is 51.6%.

The molecule `CCN(CC)Cc1cccc(C(=O)Nc2ccc(Cl)cc2C(=O)NOCc2ccccc2)c1` [Compound 1077] displayed an inhibition at 300 µM of 40.2%.

Regarding `Cc1ccc(/C=N/NC(=O)c2scc(C)c2NC(=O)c2cccc(CN(CC(C)O)CC(C)O)c2)cc1` (stereo not drawn) [Compound 540, 3-{[Bis-(2-hydroxy-propyl)-amino]-methyl}-N-[4-methyl-2-(4-methyl-benzylidene-hydrazinocarbonyl)-thiophen-3-yl]-benzamide], testing at 300 µM gave an inhibition of 38.4%.

Molecule `O=C(Nc1ccc(Cl)cc1C(=O)N/N=C/c1cccc(F)c1)c1cccc(CN(CCO)CCO)c1` [Compound 549, 3-{[Bis-(2-hydroxy-ethyl)-amino]-methyl}-N-[4-chloro-2-(3-fluoro-benzylidene-hydrazinocarbonyl)-phenyl]-benzamide] registered an inhibition at 300 µM of 85.1%.

By IC50 is commonly meant the concentration at which inhibition is half-maximal. The term inhibition denotes the percentage by which the read-out fell short of the control. A high value points to strong suppression.

The values above are taken from patent publication US8134015B2, “Compound inhibiting in vivo phosphorous transport and medicine containing the same” (Kyowa Hakko Kirin Co., Ltd., priority 2003, dated 2012).
